This is an account of results in patent US6245817A, “NPY5 receptor antagonists and methods for using same” (Bayer Corporation, priority 1999, dated 2001).

The target of one test is T1, Human NPY2 receptor (Homo sapiens, UniProt P49146).
T1 sequence (P49146 1-381): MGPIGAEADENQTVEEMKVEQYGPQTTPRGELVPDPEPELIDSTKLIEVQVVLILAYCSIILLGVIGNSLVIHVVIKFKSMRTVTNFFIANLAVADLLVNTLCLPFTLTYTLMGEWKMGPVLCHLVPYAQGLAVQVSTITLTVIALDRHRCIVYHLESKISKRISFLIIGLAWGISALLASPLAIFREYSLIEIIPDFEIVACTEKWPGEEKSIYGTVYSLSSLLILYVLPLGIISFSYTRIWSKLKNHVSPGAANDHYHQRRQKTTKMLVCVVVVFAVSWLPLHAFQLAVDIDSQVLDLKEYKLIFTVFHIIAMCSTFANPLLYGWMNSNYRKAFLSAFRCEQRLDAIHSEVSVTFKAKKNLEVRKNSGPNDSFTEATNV
The test is described as follows: Human NPY2 Receptor Binding Assay. The following applies: [125I]PYY; read-out: hPPY2 IC50.

The next test addresses T2, Human NPY5 Receptor (Homo sapiens, UniProt Q15761).
T2 sequence (Q15761 1-445): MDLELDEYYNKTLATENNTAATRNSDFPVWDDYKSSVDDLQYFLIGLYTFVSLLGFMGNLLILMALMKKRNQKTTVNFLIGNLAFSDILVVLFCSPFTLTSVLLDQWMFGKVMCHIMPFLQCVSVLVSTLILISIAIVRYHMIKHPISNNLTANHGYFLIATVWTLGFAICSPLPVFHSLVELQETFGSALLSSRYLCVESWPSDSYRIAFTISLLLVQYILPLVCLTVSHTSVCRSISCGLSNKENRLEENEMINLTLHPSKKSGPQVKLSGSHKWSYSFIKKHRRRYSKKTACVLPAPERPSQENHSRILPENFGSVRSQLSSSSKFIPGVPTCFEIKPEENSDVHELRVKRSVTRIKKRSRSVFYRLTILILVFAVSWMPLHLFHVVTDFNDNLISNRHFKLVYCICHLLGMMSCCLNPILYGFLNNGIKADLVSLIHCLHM
Kind of test: Human NPY5 Receptor Binding Assay. The following applies: [125I]PYY; read-out: hNPY5 IC50.

Broadly, the IC50 is the concentration that gives 50% inhibition.

The structures appear in SMILES notation.

Method for Human NPY2 receptor: Binding assays were performed on GF/C Millipore 96-well plates pretreated with 0.02% polyethylenimine. The binding buffer for rat Y2 binding is Krebs-Ringer bicarbonate (pH 7.4) containing 0.01% BSA and 0.005% bacitracin. Samples consist of membrane protein, 25 pM [125I]PYY and drug dilution. Nonspecific binding is defined by 1 μpM NPY.
After a 2 hour incubation at room temperature with constant mixing, the samples are aspirated on a vacuum manifold, and rinsed with ice-cold binding buffer. The amount of radioactivity in each well is quantitated with either gamma counting or liquid scintillation.

With `CC(=O)Nc1ccc(SCC(=O)Nc2ccc(C(=O)c3ccccc3)cc2)cc1` [Compound 64, 2-(-Acetylamino-phenylsulfanyl)-N-(4-benzoyl-phenyl)-acetamide], the values for the IC50 on Human NPY2 receptor and on Human NPY5 Receptor were greater than 5 µM and 2.7 µM, respectively.
On the same counts, the results for `O=C(CSc1nc[nH]n1)Nc1ccc(C(=O)c2ccccc2)cc1` [Compound 66, N-(4-Benzoyl-phenyl)-2-(1H-[1,2,4]triazol-3-ylsulfanyl)-acetamide] are greater than 5 µM and 1.7 µM.
As to `Nc1nc(SCC(=O)Nc2ccc(C(=O)c3ccccc3)cc2)nc2[nH]ncc12` [Compound 69, 2-(4-Amino-1H-pyrazolo[3,4-d]pyrimidin-6-ylsulfanyl)-N-(4-benzoyl-phenyl)-acetamide], the IC50 is greater than 5 µM at Human NPY2 receptor and 6.8 µM at Human NPY5 Receptor.
On to `Cc1ccc2[nH]c(SCC(=O)Nc3ccc(C4CCCCC4)cc3)nc2c1` [Compound 21, N-(4-Cyclohexyl-phenyl)-2-(5-methyl-1H-benzolmidazol-2-ylsulfanyl)-acetamide], for which the IC50 was greater than 5 µM on Human NPY2 receptor and 0.43 µM at Human NPY5 Receptor.
Take `O=C(CSc1ccc(F)cc1)Nc1ccc(C2CCCCC2)cc1` [Compound 53]: the IC50 was greater than 5 µM at Human NPY2 receptor and 0.21 µM on Human NPY5 Receptor.
On the same counts, the results for `O=C(CSc1ccncc1)Nc1ccc(C2CCCCC2)cc1` [Compound 50, N-(-clohexyl-phenyl)-2-(pyridin-4-ylsulfanyl)-acetamide] are greater than 5 µM and 0.053 µM.
Turning to `O=C(CSc1nc2cc([N+](=O)[O-])ccc2[nH]1)Nc1ccc(C(=O)c2ccccc2)cc1` [Compound 18, N-(4-Benzoyl-phenyl)-2-(5-nitro-1H-benzolmidazol-2-ylsulfanyl)-acetamide], the results for the IC50 at Human NPY2 receptor and at Human NPY5 Receptor were greater than 5 µM and 0.2 µM, respectively.
`O=C(CSC1=NCCS1)Nc1ccc(C2CCCCC2)cc1` [Compound 31]: the figures for the IC50 on Human NPY2 receptor and on Human NPY5 Receptor were greater than 5 µM and 0.64 µM, respectively.
On to `Cc1ccc2[nH]c(SCC(=O)Nc3ccc(C(=O)c4ccccc4)cc3)nc2c1` [Compound 22, N-(4-Benzoyl-phenyl)-2-(5-methyl-1H-benzolmidazol-2-ylsulfanyl)-acetamide], for which the IC50 at Human NPY2 receptor is greater than 5 µM; at Human NPY5 Receptor it was 0.31 µM.
The like results for `O=C(CSCC(O)CO)Nc1ccc(C(=O)c2ccccc2)cc1` (centres unmarked) [Compound 42, N-(4-Benzoyl-phenyl)-2-(2,3-dihydroxy-propylsulfanyl)-acetamide] were, in that order, greater than 5 µM and 1.5 µM.
Regarding `O=C(CSCCO)Nc1ccc(C(=O)c2ccccc2)cc1` [Compound 40, N-(4-Benzoyl-phenyl)-2-(2-hydroxy-ethylsulfanyl)-acetamide], the IC50 at Human NPY2 receptor was greater than 5 µM; at Human NPY5 Receptor it was 0.69 µM.
Turning to `Cn1nnnc1SCC(=O)Nc1ccc(C(=O)c2ccccc2)cc1` [Compound 45, N-(4-Benzoyl-phenyl)-2-(1-methyl-1H-tetrazol-5-ylsulfanyl)-acetamide], the figures for the IC50 on Human NPY2 receptor and at Human NPY5 Receptor were greater than 5 µM and 0.17 µM, respectively.
On the same counts, the results for `Nc1nc(SCC(=O)Nc2ccc(C(=O)c3ccccc3)cc2)c2[nH]cnc2n1` [Compound 68, 2-(2-Amino-7H-purin-ylsulfanyl)-N-(4 benzoyl-phenyl)-acetamide] are greater than 5 µM and 5 µM.
Regarding `O=C(CSc1ncnc2c1ncn2[C@@H]1O[C@H](CO)[C@H](O)[C@H]1O)Nc1ccc(C2CCCCC2)cc1` [Compound 23, N-(4-Cyclohexyl-phenyl)-2-[9-((2R,3R,4R,5R)-3,4-dihydroxy-5-hydroxymethyl-tetrahydro-furan-2-yl)-9H-purin-6-ylsulfanyl]-acetamide], the IC50 on Human NPY2 receptor was greater than 5 µM; at Human NPY5 Receptor it was greater than 10 µM.
Take `COc1ccc2[nH]c(SCC(=O)Nc3ccc(C(=O)c4ccccc4)cc3)nc2c1` [Compound 20, N-(4-Benzoyl-phenyl)-2-(5-methoxy-1H-benzolmidazol-2-ylsulfanyl)-acetamide]: the figures for the IC50 at Human NPY2 receptor and on Human NPY5 Receptor were greater than 5 µM and 0.42 µM, respectively.
For the compound `O=C(CSc1nc2cc(Cl)ccc2s1)Nc1ccc(C(=O)c2ccccc2)cc1` [Compound 71, N-(4-Benzoyl-phenyl)-2-(5-chloro-benzothiazol-2-ylsulfanyl)-acetamide], the IC50 on Human NPY2 receptor was greater than 5 µM; on Human NPY5 Receptor, 1.3 µM.
In the case of `O=C(CSC1=NCCS1)Nc1ccc(C(=O)c2ccccc2)cc1` [Compound 32, N-(4-Benzoyl-phenyl)-2-(4,5-dihydro-thiazol-2-ylsulfanyl)-acetamide], the IC50 at Human NPY2 receptor was greater than 5 µM; on Human NPY5 Receptor it was 1.2 µM.
The like results for `O=C(CSc1cccc[n+]1[O-])Nc1ccc(C(=O)c2ccccc2)cc1` [Compound 46, N-(4-Benzoyl-phenyl)-2-(1-oxy-pyridin-2-ylsulfanyl)-acetamide] were, in that order, greater than 5 µM and 0.3 µM.
On the same counts, the results for `Nc1nc(SCC(=O)Nc2ccc(C(=O)c3ccccc3)cc2)nc(O)c1N=O` [Compound 70, 2-(4-Amino-hydroxy-nitroso-pyrimidin-2-ylsulfanyl)-N-(4-benzoyl-phenyl)-acetamide] are greater than 5 µM and greater than 10 µM.
As for `CC(=O)Nc1ccc(SCC(=O)Nc2ccc(C3CCCCC3)cc2)cc1` [Compound 54], the IC50 on Human NPY2 receptor is greater than 5 µM; on Human NPY5 Receptor, 2 µM.
On the same counts, the results for `O=C(CSc1ncnc2[nH]ncc12)Nc1ccc(C2CCCCC2)cc1` [Compound 35, N-(4-Cyclohexyl-phenyl)-2-(1H-pyrazolo[3,4-d]pyrimidin-4-ylsulfanyl)-acetamide] are greater than 5 µM and 3.6 µM.
Regarding `O=C(CSc1ncccn1)Nc1ccc(C2CCCCC2)cc1` [Compound 39, N-(-Cyclohexyl-phenyl)-2-(pyrimidin-2-ylsulfanyl)-acetamide], the IC50 at Human NPY2 receptor is greater than 5 µM; at Human NPY5 Receptor, 0.49 µM.
On the same counts, the results for `O=C(CSc1ccc(O)cc1)Nc1ccc(C2CCCCC2)cc1` [Compound 55] are greater than 5 µM and 1.7 µM.
On to `O=C(CSc1nc2ccccc2o1)Nc1ccc(C2CCCCC2)cc1` [Compound 38, 2-(Benzooxazol-2-ylsulfanyl)-N-(-Cyclohexyl-phenyl)-acetamide], for which the IC50 is greater than 5 µM on Human NPY2 receptor and greater than 10 µM on Human NPY5 Receptor.
Consider `O=C(CSc1nc2ccccc2s1)Nc1ccc(C2CCCCC2)cc1` [Compound 37, 2-(Benzothiazol-2-ylsulfanyl)-N-(4-cyclohexylphenyl)-acetamide], for which the IC50 on Human NPY2 receptor was greater than 5 µM; at Human NPY5 Receptor it was 1.7 µM.
The like results for `O=C(CSc1nc2ccccc2c(=O)[nH]1)Nc1ccc(C2CCCCC2)cc1` [Compound 25, N-(4-Cyclohexyl-phenyl)-2-(4-oxo-3,-dihydro-quinazolin-2-ylsulfanyl)-acetamide] were, in that order, greater than 5 µM and greater than 10 µM.
Consider `COc1ccc2[nH]c(SCC(=O)Nc3ccc(C4CCCCC4)cc3)nc2c1` [Compound 19, N-(4-Cyclohexyl-phenyl)-2-(5-methoxy-1H-benzolmidazol-2-ylsulfanyl)-acetamide], for which the values for the IC50 on Human NPY2 receptor and on Human NPY5 Receptor were greater than 5 µM and 0.71 µM, respectively.
The like results for `O=C(CSc1nnnn1-c1ccccc1)Nc1ccc(C2CCCCC2)cc1` [Compound 52] were, in that order, greater than 5 µM and 0.73 µM.
The like results for `Nc1nc(SCC(=O)Nc2ccc(C3CCCCC3)cc2)nc2[nH]ncc12` [Compound 59] were, in that order, greater than 5 µM and greater than 1 µM.
On to `O=C(CSc1nc2ccccc2o1)Nc1ccc(C(=O)c2ccccc2)cc1` [Compound 48, 2-(Benzooxazol-2-ylsulfanyl)-N-(4-benzoyl-phenyl)-acetamide], for which the IC50 on Human NPY2 receptor is greater than 5 µM; at Human NPY5 Receptor it was 3 µM.
`O=C(CSc1nc2cc([N+](=O)[O-])ccc2[nH]1)Nc1ccc(C2CCCCC2)cc1` [Compound 17, N-(4-Cyclohexyl-phenyl)-2-(5-nitro-1H-benzoimidazol-2-ylsulfanyl)-acetamide]: the values for the IC50 at Human NPY2 receptor and on Human NPY5 Receptor were greater than 5 µM and 0.38 µM, respectively.
On the same counts, the results for `O=C(CSc1cccc[n+]1[O-])Nc1ccc(C2CCCCC2)cc1` [Compound 36, N-(4-Cyclohexyl-phenyl)-2-(1-oxy-pyridin-2-ylsulfanyl)-acetamide] are greater than 5 µM and 0.11 µM.
As for `O=C(CSc1ncnc2c1ncn2[C@@H]1O[C@H](CO)[C@H](O)[C@H]1O)Nc1ccc(C(=O)c2ccccc2)cc1` [Compound 24, N-(4-Benzoyl-phenyl)-2-[9-((2R,3R,4R,5R)-3,4-dihydroxy-hydroxymethy-tetrahydro-furan-2-yl)-9H-purin-ylsulfanyl]-acetamide], the IC50 on Human NPY2 receptor was greater than 5 µM; on Human NPY5 Receptor it was greater than 10 µM.
On the same counts, the results for `O=C(CSc1nc[nH]n1)Nc1ccc(C2CCCCC2)cc1` [Compound 56, N-(4-Cyclohexyl-phenyl)-2-(1H-[1,2,4]triazol-3-ylsultanyl)-acetamide] are greater than 5 µM and 0.73 µM.
